Experimental data from patent US20130197032A1, “[…] COMPOUNDS FOR THE TREATMENT OF NEUROLOGICAL AND […] DISORDERS” (A. CARLSSON RESEARCH AB, priority 2010, published 2013).
Values joined by “and” are separate entries in the source; they are usually repeats but may differ in a detail not shown here. Identical values can stand only once. Like-named read-outs stand apart in the source and are kept apart here.

What was measured:
[1] = molecular target: T1, human 5-HT2A receptors (Homo sapiens, UniProt P28223); experiment: Phosphatidyl inositol (PI) hydrolysis assay at 5-HT2A; assay type: cell-based; set-up: expressed in transfected cells
Experimental: After lysing the cells with 50 μl of 0.1M formic acid, 20 μl each cell lysate was mixed with 80 μl (1 mg) RNA Binding YSi-SPA beads (GE Healthcare, Chalfont St. Giles, UK) on PICO plates (PerkinElmer) and counted on a TopCount (Packard).
Each curve is representative of at least three or more independent experiments.

[2] = molecular target: T1, human 5-HT2A receptors; experiment: BRET2 beta-arrestin-2 recruitment assay at 5-HT2A; assay type: cell-based; set-up: expressed in transfected cells; host or cells: HEK-293T
Experimental: (§1) BRET-2 signals were measured using the multiplate reader Mithras 940LB (Berthold Technologies, Bad Wildbad, Germany) and were calculated as the ratio between the Renilla luciferase emission and the GFP2 emission corrected by the background emissions of non-transfected cells.

[3] = test system: reserpine-pretreated mice; experiment: Motor activity in monoamine-depleted (reserpine-pretreated) mice, video tracking; conditions: reserpine-pretreated mice; for antagonism of motor stimulation induced by (+)-OSU6162 250 μmol/kg ip / antagonism of motor stimulation induced by (−)-OSU6162 250 μmol/kg ip: haloperidol 1 mg/kg ip, raclopride 20 mg/kg sc, M100907 1 mg/kg ip, SCH23390 0.3 mg/kg sc, SCH39166 0.1-0.9 mg/kg sc
[4] = test system: habituated rats; experiment: Locomotion in habituated rats, photocell activity boxes; conditions: habituated rats
Experimental: Motor activity experiments in both active and habituated rats were performed on male Sprague-Dawley rats (Charles River, Germany) weighing 280-320 g. Prior to testing, rats were housed in groups of four or five in ventilated Macrolon type IV cages for approximately one week.
Rats were housed in a normal daylight cycle and the experiments were carried out during daytime. […] During the following 5 minutes test drugs were injected, after which the rats were returned to the boxes for another 60 minutes. Five by five rows of photocell beams at floor level allowed a computer based-system to register horizontal activity. Motor activity is presented as accumulated number of unrepeated beam breaks, i.e. several consecutive breakings of one beam is counted as one beam break. The software was set to register behavior from the rats' first introduction into the arena until it was finally removed from the box, i.e. for 110 or 130 minutes.
Locomotion was measured as accumulated unrepeated beam breaks. […] This was followed by 60 minutes of registration. Data are calculated from a 30 minutes period, 5-35 minutes after injection, and plotted as means and SEM. […] Data were calculated from a 30 minutes period, 5-35 minutes after injection.
The effect of haloperidol on the locomotor stimulation was also studied in habituated rats (see FIG. 10). Locomotion was measured as accumulated unrepeated beam breaks. Rats were given haloperidol (0.05, 0.2, 0.5 mg/kg, sc) and were then allowed to habituate for 65 minutes. […] Data are calculated from a 30 minutes period, taken 5-35 minutes after injection, and plotted as means and SEM. N=4-5.

[5] = molecular target: T1, human 5-HT2A receptors; experiment: R-SAT functional assay at 5-HT2A; assay type: cell-based; set-up: expressed in transfected cells; host or cells: NIH-3T3
[6] = molecular target: T2, D2 receptors (Homo sapiens, UniProt P14416); experiment: R-SAT functional assay at D2; assay type: cell-based; set-up: expressed in transfected cells; host or cells: NIH-3T3
[7] = molecular target: T2, D2 receptors; experiment: GTPγS binding assay at D2; assay type: biochemical; set-up: expressed in transfected cells; conditions: for GTPγS Eff %: percent response of reference ligand dopamine
Experimental: Cells were not centrifuged following cell scraping, but were collected directly into the ice-cold nitrogen cavitation chamber.
50 μl/well Wheat-Germ Agglutinin SPA beads (Perkin Elmer, Shelton, Conn.) were added to the plates and the plates incubated for 1 hour. The plates were then centrifuged at 1,000×g for 10 minutes and read on a Top Count NXT (Perkin Elmer, Shelton, Conn.).
To relate the results observed in R-SAT™ to a more conventional assay system, these ligands were also tested for the ability to induce GTPγS binding through D2 receptors.

[8] = molecular target: T2, D2 receptors; experiment: BRET2 beta-arrestin-2 recruitment assay at D2; assay type: cell-based; set-up: expressed in transfected cells; host or cells: HEK-293T; conditions: for BRET2 Eff %: percent response of reference ligand dopamine
Experimental: as §1
Each curve is representative of two to three independent experiments.

[9] = M100907 0.1 and 1 mg/kg ip 30 minutes prior
[10] = negative logarithm of EC50 in molar (M), HEK 293T cells, mean ± SEM
[11] = percent response of reference ligand 5-HT, mean ± SEM
[12] = haloperidol 0.05, 0.2 and 0.5 mg/kg sc

T1 sequence (P28223 whole entry): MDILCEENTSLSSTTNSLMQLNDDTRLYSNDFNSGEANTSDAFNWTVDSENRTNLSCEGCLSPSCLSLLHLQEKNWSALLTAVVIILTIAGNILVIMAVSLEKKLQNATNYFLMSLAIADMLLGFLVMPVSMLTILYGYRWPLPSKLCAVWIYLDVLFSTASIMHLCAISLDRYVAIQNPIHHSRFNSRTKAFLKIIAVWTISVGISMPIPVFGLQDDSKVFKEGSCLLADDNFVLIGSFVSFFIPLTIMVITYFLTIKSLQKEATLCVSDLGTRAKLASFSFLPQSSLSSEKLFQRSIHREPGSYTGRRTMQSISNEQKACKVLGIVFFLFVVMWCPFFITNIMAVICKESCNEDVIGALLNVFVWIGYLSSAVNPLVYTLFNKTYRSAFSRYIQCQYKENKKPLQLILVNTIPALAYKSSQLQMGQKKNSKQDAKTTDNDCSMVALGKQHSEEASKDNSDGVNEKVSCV
T2 sequence (P14416 1-414 isoform P14416-2): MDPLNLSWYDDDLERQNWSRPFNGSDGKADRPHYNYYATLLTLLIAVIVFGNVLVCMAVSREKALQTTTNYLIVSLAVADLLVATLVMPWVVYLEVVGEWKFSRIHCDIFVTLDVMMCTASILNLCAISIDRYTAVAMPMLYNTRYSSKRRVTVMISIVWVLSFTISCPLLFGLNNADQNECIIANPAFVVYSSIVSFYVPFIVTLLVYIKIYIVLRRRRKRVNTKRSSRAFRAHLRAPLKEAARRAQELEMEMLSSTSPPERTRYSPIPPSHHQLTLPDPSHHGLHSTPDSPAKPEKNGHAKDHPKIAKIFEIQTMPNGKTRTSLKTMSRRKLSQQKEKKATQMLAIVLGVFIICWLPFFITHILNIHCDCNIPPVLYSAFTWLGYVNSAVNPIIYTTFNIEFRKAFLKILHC

NCCc1c[nH]c2ccc(O)cc12 [5-HT, 5-hydroxytryptamine]
PI Hydrolysis Eff (%) [1]: 100 ± 0% | BRET2 Eff % [2]: 100 ± 5%

COc1cccc([C@H](O)C2CCN(CCc3ccc(F)cc3)CC2)c1OC [M100907, (+)-(R)-1-[1-[2-(4-fluorophenyl)ethyl]piperidin-4-yl]-1-(2,3-dimethoxyphenyl)methanol]
effect of three doses on motor activity increase caused by 250 μmol/kg of (−)-OSU6162 ([3]; M100907 0.01, 0.1, 1 mg/kg ip 30 minutes prior): Only the 1 mg/kg dose significantly decreased motor activity | antagonism of locomotor stimulation induced by DOI 2.5 mg/kg ([3]; M100907 0.01, 0.1, 1 mg/kg ip 30 minutes prior, all doses significant): highly effective in antagonizing the locomotor stimulant effects of 2.5 mg/kg of DOI | reversal of locomotor stimulation induced by 125 μmol/kg of (+)-OSU6162 [3, 9]: effectively reversed | reversal of locomotor stimulation induced by 125 μmol/kg of (−)-OSU6162 [3, 9]: effectively reversed | antagonism of motor stimulation induced by (+)-OSU6162 250 μmol/kg ip [3]: effectively antagonized this response | antagonism of motor stimulation induced by (−)-OSU6162 250 μmol/kg ip [3]: effectively antagonized | reversal of (−)-OSU6162-induced locomotor stimulation ([4]; M100907 1 mg/kg ip, 15-35 minute interval): significant reversal | counteraction of locomotor stimulation induced by (+)-OSU6162 50 μmol/kg sc ([4]; M100907 0.5 and 1 mg/kg ip, 5-35 minute interval): significantly counteracted

CCN(CC)C(=O)N[C@H]1C[C@@H]2c3cccc4[nH]cc(c34)C[C@H]2N(C)C1 [(+)-Terguride]
PI Hydrolysis pEC50 [1, 10]: 9.1 ± 0.2 | PI Hydrolysis Eff (%) [1, 11]: 52 ± 8% | R-SAT pEC50 ([5]; Table 1, negative logarithm of EC50 in molar (M), NIH3T3 cells, mean ± SEM): 9.8 ± 0.9 | R-SAT Eff(%) ([5]; Table 1, percent response of reference ligand 5-CT, mean ± SEM): 89 ± 13% | R-SAT Eff(%) [6]: 92 ± 20% | R-SAT pEC50 ([6]; Table 2, negative logarithm of EC50 in molar, NIH3T3 cells, mean ± SEM): 11.1 ± 0.2 | GTPγS pEC50 [7]: 9.3 ± 0.2 | agonist profile in GTPγS binding assays at D2 receptors [7]: strong partial agonists | GTPγS Eff % ([7]; mean ± SEM): 88 ± 8% | BRET2 pEC50 [2, 10]: 7.0 ± 0.0 | BRET2 Eff % [2, 11]: 42 ± 2% | BRET2 pEC50 ([8]; negative logarithm of EC50 in molar, HEK293T cells, mean ± SEM): 7.2 ± 0.1 | BRET2 Eff % ([8]; mean ± SEM): 8 ± 1% | BRET2 Eff % ([8]; mean ± SEM, listed as (+)-terguride): 8%

Clc1ccc2c(c1)N=C(N1CCNCC1)c1ccccc1N2 [NDMC, 8-chloro-11-(1-piperazinyl)-5H-dibenzo[b,e][1,4]diazepine]
R-SAT Eff(%) [6]: 33 ± 2% | EC50 ([6]; Table 2, negative logarithm of EC50 in molar, NIH3T3 cells, mean ± SEM, read-out: R-SAT pEC50 (converted)): 12.6 nM | EC50 ([7]; negative logarithm of EC50 in molar, HEK293T membranes, mean ± SEM, read-out: GTPγS pEC50 (converted)): 39.8 nM | GTPγS Eff % ([7]; mean ± SEM): 18 ± 1% | agonist profile in BRET2 assays at D2 receptors [8]: no agonist activity | BRET2 Eff % ([8]; mean ± SEM): 0 ± 0%

CCCN1CCCC(c2cccc(O)c2)C1 (single isomer, unassigned; (-)) [(−)-3-PPP, [3-(3-hydroxyphenyl)-N-n-propyl]piperidine]
PI Hydrolysis Eff (%) [1, 11]: 5 — % | R-SAT Eff(%) [5]: 47 ± 12% | EC50 ([5]; Table 1, negative logarithm of EC50 in molar (M), NIH3T3 cells, mean ± SEM, read-out: R-SAT pEC50 (converted)): 3.98e-06 M | R-SAT Eff(%) ([6]; Table 2, percent response of reference ligand pergolide, mean ± SEM): 77% and 77 ± 4% | agonist profile in GTPγS binding assays at D2 receptors [7]: strong partial agonists | GTPγS Eff % ([7]; mean ± SEM): 77 ± 4% | BRET2 Eff % [2, 11]: 10 ± 4% | BRET2 Eff % ([8]; mean ± SEM): 2% and 2 ± 0%

O=C(CCCN1CCC(O)(c2ccc(Cl)cc2)CC1)c1ccc(F)cc1 [haloperidol]
antagonism of motor stimulation induced by (+)-OSU6162 250 μmol/kg ip [3]: None of the dopaminergic antagonists, i e SCH23390 (0.3 mg/kg), raclopride (20 mg/kg) or haloperidol (1 mg/kg), could antagonize | antagonism of motor stimulation induced by (−)-OSU6162 250 μmol/kg ip [3]: could not antagonize | antagonism of locomotor stimulation induced by (+)-OSU6162 50 μmol/kg sc [4, 12]: effectively antagonized the locomotor stimulation | antagonism of locomotor stimulation induced by (−)-OSU6162 50 μmol/kg sc [4, 12]: effectively antagonized the locomotor stimulation
